Assay results taken from US11311522B1 (Cavion, Inc., priority 2018, dated 2022).

Experiment: PN002/Part I: safety and tolerability
Format: in vivo, human
Experimental: All adverse events were mild or moderate in intensity. No serious adverse events were reported. […] Treatment periods were separated by a minimum 1-week washout period after administration of the 2 mg dose in Period 1 and by a minimum 2-week washout after subsequent treatment periods. Clinical safety was monitored throughout the study by adverse events, clinical laboratory tests, vital signs, ECGs, and ECG telemetry. *The study was planned to include 8 subjects. A ninth subject was randomized to replace a subject who was discontinued after Period 1 (because of a prolonged QTc interval after administration of the 2 mg dose, which was considered by the investigator to be unrelated to the study drug). […] The most frequently reported adverse events were relaxation, fuzzy head, headache, lightheadedness, dizziness, and mood alteration, all of which were transient and generally mild or moderate in severity.

## CC(C)c1ccc(CC(=O)N[C@H](C)c2ccc(OCC(F)(F)F)cn2)cc1 [CX-8998]
2 mg
  At least 1 adverse event: 5 (71.4) n (%)
  Breathing difficult: 0 n (%)
  Dizziness: 0 n (%)
  Dizziness upon standing: 0 n (%)
  Dry mouth: 0 n (%)
  Dry throat: 0 n (%)
  Eye Disorders: 0 n (%)
  Feeling drunk: 0 n (%)
  Feeling hot: 0 n (%)
  Feeling of relaxation: 1 (14.3) n (%)
  Feeling of warmth: 0 n (%)
  Floating feeling: 1 (14.3) n (%)
  Fuzzy head: 0 n (%)
  Gastrointestinal Disorders: 1 (14.3) n (%)
  Headache: 2 (28.6) n (%)
  Lightheadedness: 0 n (%)
  Nasal congestion: 0 n (%)
  Nervous System Disorders: 2 (28.6) n (%)
  Paraesthesia of fingers: 0 n (%)
  Respiratory, Thoracic and Mediastinal Disorders: 1 (14.3) n (%)
  Tiredness: 0 n (%)
  Vision blurred: 0 n (%)
  Visual disturbance: 0 n (%)
4 mg
  At least 1 adverse event: 5 (83.3) n (%)
  Breathing difficult: 0 n (%)
  Dizziness: 0 n (%)
  Dizziness upon standing: 0 n (%)
  Dry mouth: 0 n (%)
  Dry throat: 0 n (%)
  Eye Disorders: 1 (16.7) n (%)
  Feeling drunk: 0 n (%)
  Feeling hot: 0 n (%)
  Feeling of relaxation: 1 (16.7) n (%)
  Feeling of warmth: 0 n (%)
  Floating feeling: 1 (16.7) n (%)
  Fuzzy head: 1 (16.7) n (%)
  Headache: 3 (50.0) n (%)
  Lightheadedness: 1 (16.7) n (%)
  Nasal congestion: 1 (16.7) n (%)
  Nervous System Disorders: 5 (83.3) n (%)
  Paraesthesia of fingers: 0 n (%)
  Respiratory, Thoracic and Mediastinal Disorders: 1 (16.7) n (%)
  Tiredness: 1 (16.7) n (%)
  Vision blurred: 1 (16.7) n (%)
  Visual disturbance: 0 n (%)
8 mg
  At least 1 adverse event: 6 (100) n (%)
  Breathing difficult: 1 (16.7) n (%)
  Dizziness: 2 (33.3) n (%)
  Dizziness upon standing: 1 (16.7) n (%)
  Dry mouth: 4 (66.7) n (%)
  Dry throat: 1 (16.7) n (%)
  Eye Disorders: 2 (33.3) n (%)
  Feeling drunk: 0 n (%)
  Feeling hot: 2 (33.3) n (%)
  Feeling of relaxation: 0 n (%)
  Feeling of warmth: 0 n (%)
  Floating feeling: 1 (16.7) n (%)
  Fuzzy head: 2 (33.3) n (%)
  Gastrointestinal Disorders: 4 (66.7) n (%)
  Headache: 3 (50.0) n (%)
  Lightheadedness: 3 (50.0) n (%)
  Nasal congestion: 1 (16.7) n (%)
  Nervous System Disorders: 6 (100.0) n (%)
  Paraesthesia of fingers: 0 n (%)
  Respiratory, Thoracic and Mediastinal Disorders: 3 (50.0) n (%)
  Tiredness: 2 (33.3) n (%)
  Vision blurred: 1 (16.7) n (%)
  Visual disturbance: 1 (16.7) n (%)
12 mg
  At least 1 adverse event: 5 (83.3) n (%)
  Breathing difficult: 0 n (%)
  Dizziness: 0 n (%)
  Dizziness upon standing: 0 n (%)
  Dry mouth: 1 (16.7) n (%)
  Dry throat: 0 n (%)
  Eye Disorders: 1 (16.7) n (%)
  Feeling drunk: 1 (16.7) n (%)
  Feeling hot: 0 n (%)
  Feeling of relaxation: 2 (33.3) n (%)
  Feeling of warmth: 0 n (%)
  Floating feeling: 0 n (%)
  Fuzzy head: 0 n (%)
  Headache: 3 (50.0) n (%)
  Lightheadedness: 0 n (%)
  Nasal congestion: 0 n (%)
  Nervous System Disorders: 4 (66.7) n (%)
  Paraesthesia of fingers: 0 n (%)
  Respiratory, Thoracic and Mediastinal Disorders: 1 (16.7) n (%)
  Tiredness: 0 n (%)
  Vision blurred: 1 (16.7) n (%)
  Visual disturbance: 0 n (%)
18 mg
  At least 1 adverse event: 6 (100.0) n (%)
  Breathing difficult: 2 (33.3) n (%)
  Dizziness: 2 (33.3) n (%)
  Dizziness upon standing: 1 (16.7) n (%)
  Dry mouth: 0 n (%)
  Dry throat: 1 (16.7) n (%)
  Eye Disorders: 2 (33.3) n (%)
  Feeling drunk: 1 (16.7) n (%)
  Feeling hot: 2 (33.3) n (%)
  Feeling of relaxation: 2 (33.3) n (%)
  Feeling of warmth: 2 (33.3) n (%)
  Floating feeling: 2 (33.3) n (%)
  Fuzzy head: 2 (33.3) n (%)
  Gastrointestinal Disorders: 3 (50.0) n (%)
  Headache: 2 (33.3) n (%)
  Lightheadedness: 1 (16.7) n (%)
  Nasal congestion: 0 n (%)
  Nervous System Disorders: 6 (100.0) n (%)
  Paraesthesia of fingers: 2 (33.3) n (%)
  Respiratory, Thoracic and Mediastinal Disorders: 2 (33.3) n (%)
  Tiredness: 1 (16.7) n (%)
  Vision blurred: 0 n (%)
  Visual disturbance: 2 (33.3) n (%)
Any dose
  At least 1 adverse event: 9 (100.0) n (%)
  Breathing difficult: 2 (22.2) n (%)
  Dizziness: 3 (33.3) n (%)
  Dizziness upon standing: 2 (22.2) n (%)
  Dry mouth: 4 (44.4) n (%)
  Dry throat: 2 (22.2) n (%)
  Eye Disorders: 4 (44.4) n (%)
  Feeling drunk: 2 (22.2) n (%)
  Feeling hot: 2 (22.2) n (%)
  Feeling of relaxation: 5 (55.6) n (%)
  Feeling of warmth: 2 (22.2) n (%)
  Floating feeling: 2 (22.2) n (%)
  Fuzzy head: 3 (33.3) n (%)
  Gastrointestinal Disorders: 6 (66.7) n (%)
  Headache: 7 (77.8) n (%)
  Lightheadedness: 4 (44.4) n (%)
  Nasal congestion: 2 (22.2) n (%)
  Nervous System Disorders: 8 (88.8) n (%)
  Paraesthesia of fingers: 2 (22.2) n (%)
  Respiratory, Thoracic and Mediastinal Disorders: 4 (44.4) n (%)
  Tiredness: 3 (33.3) n (%)
  Vision blurred: 3 (33.3) n (%)
  Visual disturbance: 3 (33.3) n (%)
Single doses up to 18 mg
  Tolerability: generally well tolerated
